Data published in article PMC11237694, “Novel pentafluorosulfanyl-containing triclocarban analogs selectively kill Gram-positive bacteria” (Microbiology Spectrum, 2024).
Values after ≈ are worked out from the molar mass of the structure shown.

How the values were obtained:
Test in all cases: Planktonic susceptibility (MIC/MBC), 96-well broth microdilution
[1] = test system: Klebsiella pneumoniae ATCC; format: cell-based; conditions: K. pneumonia; for MIC: planktonic, overnight 37°C in MHB
Experimental: (§1) All bacterial strains subjected to testing had been stored at −70°C prior to the experiment. The experiment commenced by streaking small amounts of the frozen bacterial samples onto Muller-Hinton agar (MHA) culture medium (BD Bacto, Oxoid, Basingstoke, UK Cat# X296B) and allowing for overnight incubation. Bacteria were re-cultured on MHA plates as required to confirm colony morphology and lack of contamination. Strains tested were P. aeruginosa ATCC 27853, E. coli ATCC 25922, Staphylococcus aureus ATCC 25923, MRSA ATCC 33591, S. epidermidis ATCC 12228, Klebsiella pneumoniae ATCC, P. mirabilis ATCC 35659, and 10 clinical isolates of MRSA from Foothills Hospital, Calgary, Canada. To prepare for susceptibility testing, a protocol modified from Lemire et al was used ([28]). MHB was swab-inoculated from MHA colonies and shake-incubated until turbid. Dilution of the broth with 0.9% saline was performed as necessary to match a 1.0 McFarland standard.
(§2) MIC and MBC assessments were conducted on all bacterial strains using 96-well microtiter plates. To prepare the wells for bacteria, serial dilutions of the antibacterial agents were carried out along the rows of two microtiter plates. The antibacterials were 2-fold diluted with Mueller-Hinton broth (MHB) in each column, reaching a volume of 75 µL. The 1.0 McFarland standard was diluted 15-fold in MHB, and 75 µL of inoculum was added to the wells treated with antibacterials, resulting in a total volume of 150 µL. The microtiter plates were covered and then shake-incubated overnight at 150 rpm and 37°C. MIC was determined based on visible bacterial growth. In cases of antibacterial opacity or ambiguous results, streaking of well cultures on MHA, overnight incubation, and subsequent comparison with controls were performed. MBC was determined by transferring 3 µL of culture from all MIC microtiter plate wells to 147 µL of Mueller-Hinton broth in fresh plates. These plates were shake-incubated overnight at 150 rpm and 37°C, and bacterial growth was visually inspected.

[2] = test system: P. mirabilis ATCC 35659; format: cell-based; conditions: Proteus mirabilis; for MBC: ATCC35659; for MIC: ATCC35659, planktonic, overnight 37°C in MHB
Experimental: as §1, §2

[3] = test system: Staphylococcus aureus ATCC 25923; format: cell-based; conditions: Staphylococcus aureus, ATCC25923, S. aureus; for MIC: planktonic, overnight 37°C in MHB
Experimental: as §1, §2

[4] = test system: MRSA ATCC 33591; format: cell-based, methicillin-resistant S. aureus; conditions: Staphylococcus aureus, MRSA reference strain; for MIC: planktonic, overnight 37°C in MHB
Experimental: as §1
as §2, with “In cases of antibacterial opacity or ambiguous results, streaking of well cultures on MHA, overnight incubation, and subsequent comparison with controls were performed.” left out

| MIC [1] | MIC [2] | MIC [3] | MIC [4] | SMILES | MBC [1] | MBC [2] | MBC [3] | MBC [4] |
| --- | --- | --- | --- | --- | --- | --- | --- | --- |
| > 5 mM | > 5 mM | 0.038 mM (≈ 15.5 µg/mL) | 0.0095 mM (≈ 3.87 µg/mL) | O=C(Nc1ccc(Cl)cc1)Nc1ccc(Cl)c(S(F)(F)(F)(F)F)c1 [EBP-41, 1-(4-chloro-3-(pentafluoro-λ^6-sulfanyl)phenyl)-3-(4-chlorophenyl)urea] | > 5 mM | > 5 mM | 1.2 mM (≈ 489 µg/mL) | 1.2 mM (≈ 489 µg/mL) |
| > 5 mM | > 5 mM | 1.2 mM (≈ 557 µg/mL) | 1.2 mM (≈ 557 µg/mL) | O=C(Nc1cccc(S(F)(F)(F)(F)F)c1)Nc1cccc(S(F)(F)(F)(F)F)c1 [EBP-53, 1,3-bis(3-(Pentafluoro-λ^6-sulfanyl)phenyl) urea] | > 5 mM | > 5 mM | – | – |
| > 5 mM | > 5 mM | 0.019 mM (≈ 8.82 µg/mL) | 0.0048 mM (≈ 2.23 µg/mL) | O=C(Nc1ccc(S(F)(F)(F)(F)F)cc1)Nc1cccc(S(F)(F)(F)(F)F)c1 [EBP-55, 1-(3-(pentafluoro-λ^6-sulfanyl)phenyl)-3-(4-(pentafluoro-λ^6-sulfanyl)phenyl)urea] | > 5 mM | > 5 mM | 78 mM (≈ 36200 µg/mL) | 0.15 mM (≈ 69.7 µg/mL) |
| > 5 mM | > 5 mM | 4.9 mM (≈ 2610 µg/mL) | 0.3 mM (≈ 160 µg/mL) | O=C(Nc1ccc(Cl)c(S(F)(F)(F)(F)F)c1)Nc1ccc(Cl)c(S(F)(F)(F)(F)F)c1 [EBP-56, 1,3-bis(4-Chloro-3-(pentafluoro-λ^6-sulfanyl)phenyl) urea] | > 5 mM | > 5 mM | 78 mM (≈ 41600 µg/mL) | 0.61 mM (≈ 325 µg/mL) |
| > 5 mM | > 5 mM | – | 20 mM (≈ 8140 µg/mL) | O=C(Nc1ccc(Cl)cc1)Nc1cccc(S(F)(F)(F)(F)F)c1Cl [EBP-58, 1-(2-Chloro-3-(pentafluoro-λ^6-sulfanyl)phenyl)-3-(4-chlorophenyl)urea] | > 5 mM | > 5 mM | – | – |
| > 5 mM | > 5 mM | – | – | O=C(Nc1ccc(S(F)(F)(F)(F)F)cc1)Nc1ccc2nnsc2c1 [EPB-21, 3-(1,2,3-benzothiadiazol-6-yl)-1-(4-pentafluoro-λ^6-sulfanyl)urea] | > 5 mM | > 5 mM | – | – |
| > 5 mM | > 5 mM | 0.61 mM (≈ 242 µg/mL) | 0.61 mM (≈ 242 µg/mL) | O=C(Nc1cccc(S(F)(F)(F)(F)F)c1)Nc1ccc2nnsc2c1 [EPB-22, 3-(1,2,3-benzothiadiazol-6-yl)-1-(3-pentafluoro-λ^6-sulfanyl)urea] | > 5 mM | > 5 mM | 20 mM (≈ 7930 µg/mL) | 4.9 mM (≈ 1940 µg/mL) |
| > 5 mM | > 5 mM | 2.4 mM (≈ 1030 µg/mL) | 4.9 mM (≈ 2110 µg/mL) | O=C(Nc1ccc2nnsc2c1)Nc1cc(S(F)(F)(F)(F)F)ccc1Cl [EPB-23, 3-(1,2,3-benzothiadiazol-6-yl)-1-(2-chloro-5-pentafluoro-λ^6-sulfanyl)urea] | > 5 mM | > 5 mM | 20 mM (≈ 8620 µg/mL) | 39 mM (≈ 16800 µg/mL) |
